According to patent publication US8273743B2, “Quinoxaline inhibitors of the hedgehog signalling” (Curis, Inc., priority 2004, dated 2012):

System: hedgehog pathway signaling (10T1/2-GliLuc [s12] or HEPM-GliLuc [MZ24] Gli reporter cell lines)
Experiment: Hedgehog signalling inhibition assay (Gli-luciferase reporter gene assay)
Assay type: cell-based
Conditions: average IC50; either mouse [s12] or human [MZ24] Gli reporter cell lines; with Sonic hedgehog-octyl conjugate, 24 hrs
Procedure: Mouse Reporter Cell lines—10T1/2-GliLuc [s12] cells (derived from cell line C3H10T1/2 ATCC #CCL-226); Mouse Embryonic Fibroblasts); Growth Medium: Dulbecco's modified Eagles' Medium (DMEM) supplemented with 10% Fetal Bovine Serum (FBS), 10 units/mL penicillin, 100 ug/mL streptomycin, 2 mM glutamine, and 10 mM HEPES.
Human Reporter Cell lines—HEPM-GliLuc [MZ24]—cells (derived from HEPM, Human Embryonic Palatal Mesenchyme ATCC #CRL-1486); Growth Medium: Minimum Essential Medium (MEM; with Earle's salts) supplemented with 10-20% Fetal Bovine Serium (FBS), 10 units/mL penicillin, 100 ug/mL streptomycin, 2 mM glutamine, and 10 mM HEPES pH 7.2.
Sonic hedgehog—recombinant human SHh N-terminal octylated conjugate.
Microtiter Plates (MTPs)—For the Luciferase assay cells are plated in 96-well MTPs (White, Flat-bottom, Clear-View).
Luciferase-Assay Medium—DMEM supplemented with 0.5% FBS, 10 units/mL penicillin, 100 ug/mL streptomycin, 2 mM glutamine, and 10 mM HEPES pH 7.2.
PBS/Ca/Mg Mix—Phosphate Buffered Saline (PBS) supplemented with 0.5 mM CaCl2 and 1 mM MgCl2.
S12 and MZ24 cells genetically modified to contain a luciferase reporter gene driven by the hedgehog-responsive Gli promoter were maintained on tissue culture dishes in Growth Medium at 37° C. and 5% CO2. Cell cultures were passaged at sub-confluency at every 3-4 days. (1:20 to 1:40 for s12; 1:3 to 1:10 for MZ24). Cells were harvested and diluted in Growth Medium such that they could be plated in a microtitre plate at 10,000-20,000 cells (s12), or 20,000-30,000 cells (MZ24), per 100 ul, per well. Cells were further incubated for ˜24-48 hours at 37° C. and 5% CO2.
After ˜24-48 hour incubation the Growth Medium in the microtitre plates was replaced by Luciferase-Assay Medium (100 ul per well), with and without Sonic hedgehog-octyl conjugate, at 0.1-0.3 ug/ml (S12) or 0.5-1.0 ug/ml (MZ24), and test compounds. Cells were then further incubated for and additional 24 hrs.
Microtitre plates were then subjected to the luciferase reporter gene assay kit (LucLite™), with modifications to the manufacturer's procedure wherein medium was removed and the substrate was reconstituted with 1:1 PBS/Ca/Mg:lysis buffer instead of straight lysis buffer. In brief, the PBS/Ca/Mg was mixed 1:1 with lysis buffer and 10 mL were added to each substrate vial (of the 1000-assay kit). Then the assay media from the microtitre plate was discarded, and 100 ul of this substrate mix was added to each well. Plates were incubated at room temperature for 20-30 minutes and then the Relative Light Units (RLUS) representing the relative expression level of the luciferase reporter gene were determined with a Topcount reader (Packard) or an Analyst reader (Molecular Devices).
The following table 1 represents the average IC50 values for particular compounds tested according to the procedures above using either mouse [s12] or human [MZ24] Gli reporter cell lines indicating inhibition of hedgehog pathway signaling.

IC50, < 1000 nM:
O=C(Nc1ccc(Cl)c(-c2cnc3ccccc3n2)c1)c1ccc2cc[nH]c2c1 [compound 19]
O=C(Nc1ccc(Cl)c(-c2cnc3ccccc3n2)c1)c1cccnc1Cl [compound 37]
O=C(Nc1ccc(Cl)c(-c2cnc3ccccc3n2)c1)c1ccc(Cl)nc1Cl [compound 15]
Cc1ccc2ncc(-c3cc(NC(=O)c4ccc(C(F)(F)F)nc4C)ccc3Cl)nc2c1C [compound 45]
Cc1nc(C(F)(F)F)ccc1C(=O)Nc1ccc(Cl)c(-c2cnc3cc(F)ccc3n2)c1 [compound 43]
O=C(Nc1ccc(Cl)c(-c2cnc3ccccc3n2)c1)c1ccc(Cl)nc1 [compound 36]
Cc1cc(C)c2nc(-c3cc(NC(=O)c4ccc(C(F)(F)F)nc4C)ccc3Cl)cnc2c1 [compound 48]
O=C(Nc1ccc(Cl)c(-c2cnc3ccccc3n2)c1)C1CC1 [compound 27]
CS(=O)(=O)c1ccc(C(=O)Nc2ccc(Cl)c(-c3cnc4ccccc4n3)c2)cc1 [compound 18]
COc1cc(OC)cc(C(=O)Nc2ccc(Cl)c(-c3cnc4ccc(C)c(C)c4n3)c2)c1 [compound 54]
O=C(Nc1ccc(Cl)c(-c2cnc3ccccc3n2)c1)c1ccc(Cl)cc1 [compound 34]
Cc1nc(C(F)(F)F)ccc1C(=O)Nc1ccc(Cl)c(-c2cnc3c(F)c(F)ccc3n2)c1 [compound 40]
Cc1ccsc1C(=O)Nc1ccc(Cl)c(-c2cnc3ccccc3n2)c1 [compound 7]
O=C(Nc1ccc(Cl)c(-c2cnc3ccccc3n2)c1)c1cccc2c1OCCO2 [compound 44]
CC(C)CC(=O)Nc1ccc(Cl)c(-c2cnc3ccccc3n2)c1 [compound 56]
Cc1nc(C(F)(F)F)ccc1C(=O)Nc1ccc(Cl)c(-c2cnc3c(C)cccc3n2)c1 [compound 47]
Cc1nc(C(F)(F)F)ccc1C(=O)Nc1ccc(Cl)c(-c2cnc3c(F)cc(F)cc3n2)c1 [compound 39]
Cc1cc(C(=O)Nc2ccc(Cl)c(-c3cnc4ccccc4n3)c2)c(C(F)(F)F)o1 [compound 31]
O=C(Nc1ccc(Cl)c(-c2cnc3ccccc3n2)c1)c1cccnc1 [compound 35]
Cc1cc2ncc(-c3cc(NC(=O)c4ccc(C(F)(F)F)nc4C)ccc3Cl)nc2cc1C [compound 42]
O=C(Nc1ccc(Cl)c(-c2cnc3ccccc3n2)c1)c1cccnc1F [compound 6]
Cc1nc(C(F)(F)F)ccc1C(=O)Nc1ccc(Cl)c(-c2cnc3cc(F)c(F)cc3n2)c1 [compound 41]
COc1cc(OC)cc(C(=O)Nc2ccc(Cl)c(-c3cnc4c(C)cccc4n3)c2)c1 [compound 46]
O=C(Nc1ccc(Cl)c(-c2cnc3ccccc3n2)c1)c1cccc(Cl)c1 [compound 33]
Cc1nc(C(F)(F)F)ccc1C(=O)Nc1ccc(Cl)c(-c2cnc3cccnc3n2)c1 [compound 55]
O=C(Nc1ccc(Cl)c(-c2cnc3ccccc3n2)c1)c1cccs1 [compound 38]
CS(=O)(=O)c1cccc(C(=O)Nc2ccc(Cl)c(-c3cnc4ccccc4n3)c2)c1 [compound 24]
